Experimental data as given in PubChem BioAssay (NCI).
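Results reflect a 48-hour exposure of cells in 96-well plates to compound at five concentrations. At the GI50, growth is halved. TGI marks complete inhibition of growth.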

Columns and labels:
Assay in all cases: NCI-60 cell line screen, 48 h
EKVX NSCLC = tested on: EKVX NSCLC
PC-3 prostate = tested on: PC-3 prostate
SK-MEL-28 melanoma = tested on: SK-MEL-28 melanoma
CAKI-1 renal = tested on: CAKI-1 renal
BT-549 breast = tested on: BT-549 breast
UO-31 renal = tested on: UO-31 renal
SNB-75 CNS = tested on: SNB-75 CNS
SK-MEL-5 melanoma = tested on: SK-MEL-5 melanoma
786-0 renal = tested on: 786-0 renal
SN12C renal = tested on: SN12C renal
SW-620 colon = tested on: SW-620 colon
SK-MEL-2 melanoma = tested on: SK-MEL-2 melanoma
TK-10 renal = tested on: TK-10 renal
RXF 393 renal = tested on: RXF 393 renal
NCI-H460 lung = tested on: NCI-H460 lung
HCT-15 colon = tested on: HCT-15 colon
NCI-H23 lung = tested on: NCI-H23 lung
OVCAR-5 ovarian = tested on: OVCAR-5 ovarian
SF-539 CNS = tested on: SF-539 CNS
SR leukemia = tested on: SR leukemia
MCF7 breast = tested on: MCF7 breast
U251 CNS = tested on: U251 CNS
HL-60(TB) leukemia = tested on: HL-60(TB) leukemia
SF-268 CNS = tested on: SF-268 CNS
A549 NSCLC = tested on: A549 NSCLC
DU-145 prostate = tested on: DU-145 prostate
NCI/ADR-RES ovarian = tested on: NCI/ADR-RES ovarian
NCI-H226 lung = tested on: NCI-H226 lung
K-562 leukemia = tested on: K-562 leukemia

CCc1ccc(C2=C(O)C(=O)C(c3ccc(CC)cc3)=C(O)C2=O)cc1
GI50 (EKVX NSCLC): 2.35 µM | TGI (EKVX NSCLC): 8.64 µM | GI50 (PC-3 prostate): 2.17 µM | TGI (PC-3 prostate): 7.95 µM | GI50 (SK-MEL-28 melanoma): 2.65 µM | TGI (SK-MEL-28 melanoma): 8.89 µM | GI50 (CAKI-1 renal): 1.92 µM | TGI (CAKI-1 renal): 5.27 µM | GI50 (BT-549 breast): 1.76 µM | TGI (BT-549 breast): 5.62 µM | GI50 (UO-31 renal): 1.73 µM | TGI (UO-31 renal): 4.91 µM | GI50 (SNB-75 CNS): 1.37 µM | TGI (SNB-75 CNS): 4.19 µM | GI50 (SK-MEL-5 melanoma): 1.89 µM | TGI (SK-MEL-5 melanoma): 3.86 µM | GI50 (786-0 renal): 1.57 µM | TGI (786-0 renal): 2.95 µM | GI50 (SN12C renal): 2.28 µM | TGI (SN12C renal): 9.79 µM | GI50 (SW-620 colon): 2.87 µM | TGI (SW-620 colon): 10.4 µM | GI50 (SK-MEL-2 melanoma): 1.18 µM | TGI (SK-MEL-2 melanoma): 3.35 µM | GI50 (TK-10 renal): 2.26 µM | TGI (TK-10 renal): 8.61 µM | GI50 (RXF 393 renal): 3.34 µM | TGI (RXF 393 renal): 12.8 µM | GI50 (NCI-H460 lung): 2.06 µM | TGI (NCI-H460 lung): 5 µM | GI50 (HCT-15 colon): 2.23 µM | TGI (HCT-15 colon): 7.5 µM | GI50 (NCI-H23 lung): 1.96 µM | TGI (NCI-H23 lung): 5.23 µM | GI50 (OVCAR-5 ovarian): 1.61 µM | TGI (OVCAR-5 ovarian): 5.88 µM | GI50 (SF-539 CNS): 1.8 µM | TGI (SF-539 CNS): 4.45 µM | GI50 (SR leukemia): 1.91 µM | TGI (SR leukemia): 5.07 µM | GI50 (MCF7 breast): 1.83 µM | TGI (MCF7 breast): 5.05 µM | GI50 (U251 CNS): 2.26 µM | TGI (U251 CNS): 10.1 µM | GI50 (HL-60(TB) leukemia): 2.6 µM | TGI (HL-60(TB) leukemia): 6.24 µM | GI50 (SF-268 CNS): 2.14 µM | TGI (SF-268 CNS): 6.44 µM | GI50 (A549 NSCLC): 2.74 µM | TGI (A549 NSCLC): 10.4 µM | GI50 (DU-145 prostate): 2.81 µM | TGI (DU-145 prostate): 10.6 µM | GI50 (NCI/ADR-RES ovarian): 2.21 µM | TGI (NCI/ADR-RES ovarian): 5.86 µM | GI50 (NCI-H226 lung): 1.9 µM | TGI (NCI-H226 lung): 7.34 µM | GI50 (K-562 leukemia): 1.34 µM | TGI (K-562 leukemia): 3.61 µM
